This test concerns broiler chickens with combined chronic mycotoxicosis (aflatoxin B1, ochratoxin A, T-2-mycotoxin, fumonisin B1 in feed). Further details: species or system broiler chickens of the Cobb-Avian-48 cross. The note with it: in vivo.

Molecules are shown by their SMILES.

Take `OC[C@H]1O[C@@H](O[C@@H]2[C@@H](CO)OC(O)(CO)[C@H]2O)[C@H](O)[C@@H](O)[C@H]1O` (mixture of isomers) [lactulose]: the “recovery of average daily weight gain per kilogram of component in the compound feed” value is 25%.
